Reference: publication PMC9751883, “Discovery of new potent lysine specific histone demythelase-1 inhibitors (LSD-1) using structure based and ligand based molecular modelling and machine learning” (RSC Advances, 2022)
Where two headings read alike, the source gives them in different places.

How the values were obtained:
LSD-1 = biological target: T1, LSD-1 (Homo sapiens, UniProt O60341); test: fluorometric LSD-1 enzymatic assay (Cayman kit); assay type: biochemical; details: for IC50: read-out: IC50 LSD-1 enzyme
T1 construct: purchased Cayman Chemical-USA 700120
Description: Briefly, the assay is based on a multistep enzymatic reaction in which LSD-1 first produces H2O2 during the demethylation of lysine 4 on a peptide corresponding to the first 21 amino acids of the N-terminal tail of histone H3. In the presence of horseradish peroxidase (HRP), H2O2 reacts with ADHP (10-acetyl-3,7-dihydroxyphenoxazine) to produce the highly fluorescent compound resorufin. Resorufin fluorescence was analysed with an excitation wavelength 530–540 nm and an emission wavelength of 585–595 nm. […] The procedure proceeds through the following steps: (i) prepare 100% initial activity wells by adding 120 μl of assay buffer, 20 μl of LSD1, 20 μl of HRP, 10 μl of ADHP, and 10 μl of DMSO to three wells. […] (iv) Initiate the reactions by adding 20 μl of substrate peptide to all the wells being used, except the background wells. (v) Cover the plate with the plate cover and incubate for 30 minutes at 37 °C. (vi) Remove the plate cover and read the plate using an excitation wavelength of 530–540 nm and an emission wavelength of 585–595 nm. (vii) Determine the average fluorescence of each sample. (viii) Subtract the fluorescence of the background wells from the fluorescence of the 100% initial activity and the inhibitor wells. (ix) Determine the percent inhibition for each sample. To do this, subtract each inhibitor sample value from the 100% initial activity sample value.

[1] = test system: glioblastoma U-87 MG cells; test: MTT cytotoxicity against U-87 MG cells; assay type: cell-based
Description: (§1) The anticancer effects of captured hits were evaluated against SH-SY5Y (Neuroblastoma, CRL-2266), Panc-1 (pancreatic carcinoma, CRL-1469) and U-87 MG (glioblastoma, HTB-14) cells. Details about growth conditions, cell harvesting and counting are available in ESI Sections SM12–SM14. ^† The cancer killing profiles of tested compounds were evaluated colorimetrically using the Cell Titer Non-Radioactive Cell Proliferation Assay Kit® (Promega, USA) based on the reduction of a yellow tetrazole, 3-(4,5-Dimethylthiazol-2-yl)-2, 5-diphenyl tetrazolium bromide (MTT), to a purple formazan, a process that takes place in the mitochondria of viable cells (details are in ESI Sections SM12–SM14 ^†).[98,99]
(§2) Panc-1 and U-87 MG cells were used to probe LSD-1 inhibition by candidate inhibitors.[119,120] However, testing against HDF is aimed at evaluating the selective cytotoxicities of hits.

[2] = test system: pancreatic carcinoma Panc-1 cells; test: MTT cytotoxicity against Panc-1 cells; assay type: cell-based; details: for SI: selectivity index in comparison with SH-SY5Y cells, Panc-1: Panc-1 vs SH-SY5Y
Description: as §1, §2

[3] = test system: normal human dermal fibroblasts (HDF); test: cytotoxicity against normal human dermal fibroblasts; assay type: cell-based; details: for SI: selectivity index in comparison with SH-SY5Y cells, HDF: HDF vs SH-SY5Y
Excerpt: However, testing against HDF is aimed at evaluating the selective cytotoxicities of hits.

[4] = test system: neuroblastoma SH-SY5Y cells; test: MTT cell viability assay on SH-SY5Y cells; assay type: cell-based; details: for IC50: read-out: In vitro IC50; for Experimental % inhibition Without verapamil At 50 μM: 72 h
Description: as §1
As SH-SY5Y cells highly express ATP binding cassette subfamily B member 1 (ABCB1, MDR1, normalized expression, NX: 36.8%),[100] cell resistance were reversed using verapamil (10 μM), which was added with each hit, and incubated with cells for 72 hours for subsequent MTT viability assay.[101,102] Finally, MTT cell proliferation assay results were analysed using GraphPad Prism 8.0 (GraphPad Software, Inc). […] Measurements were repeated in triplicates.
• MTT Cell Proliferation Assay
Inhibitory effect of the hits on SH-SY5Y cells were evaluated by a colorimetric method of CellTiter Non-Radioactive Cell Proliferation Assay Kit® (Promega, USA), based on the reduction of a yellow tetrazole, 3-(4,5-Dimethylthiazol-2-yl)-2, 5-diphenyl tetrazolium bromide (MTT), to a purple formazan, a process that take place in the mitochondria of viable cells.
Briefly, the cells were seeded onto 96-well plates (Greiner, Germany) at a concentration of 2×10^4 cells/well and incubated for 24 hours through which cells are attached to the walls of the wells.
Subsequently, hits under concern were screened on 50 µM and 10 µM concentrations (100 μL/ well). Each concentration was added in triplicates, and every plate contained a control of cells in plain medium. The cells were then incubated at 37 °C for 72 hours. After incubation, the media were aspirated from the wells and replaced by fresh media (100 μL/ well), and 15 µl MTT dye solution. The plates were incubated at 37 °C for four hours, and then 50 μL of solublization/stop solution was added to each well. Optical density (OD) at 560 nm wavelength was recorded one hour later using a 96-well plate reader (GloMax, Promega).
• Reversal of SH-SY5Y resistance by verapamil
As SH-SY5Y cells are highly expressing ATP binding cassette subfamily B member 1 (ABCB1, MDR1) (Normalized expression, NX: 36.8%) 100, cell resistance were reversed using 10 µM concentration of verapamil added with each hit and incubated with cells for 72 hours for subsequent MTT viability assay 101,102.

[5] = in presence of verapamil (10 μM)

SMILES	% Inhibition at 10 μM LSD-1 enzyme (LSD-1) [%]	% Inhibition at 10 μM U-87 MG [1] [%]	% Inhibition at 10 μM Panc-1 [2] [%]	% Inhibition at 10 μM HDF [3] [%]	HS (hill Slope) LSD-1 enzyme (LSD-1)	IC50 (LSD-1) [nM]	IC50 [1] [nM]	IC50 [2] [nM]	Experimental % inhibition Without verapamil At 50 μM ([4]; without verapamil) [%]	other results
O=C(NCCCCCCCCCCNC(=O)Nc1cccc(C2=NCCN2)c1)Nc1cccc(C2=NCCN2)c1 [Cpd 285]	18	0	3	31	–	–	–	–	–	–
CCCCOCCCNCC(=O)Nc1ccc(S(=O)(=O)c2ccc(NC(=O)CNCCCOCCCC)cc2)cc1 [Cpd 287]	96	15	39	7	–	–	–	–	–	–
N=C(N)c1ccc(OCCCCCCOc2ccc(C(=N)N)cc2)cc1 [Cpd 288]	18	47	41	35	–	–	–	–	–	–
COc1cccc2c1C(=O)c1c(O)c3c(c(O)c1C2=O)CC(O)(C(C)=NNC(=O)CO)CC3OC1CC(N)C(O)C(C)O1 (stereo not drawn) [Cpd 298]	78	81	93	69	0.36	210	920	740	–	SI: selectivity index in comparison with SH-SY5Y cells, U-87 MG ([1]; U-87 MG vs SH-SY5Y): 30.6; SI: selectivity index in comparison with SH-SY5Y cells, Panc-1 [2]: 24.6; IC50 [3]: 3.06 µM; SI: selectivity index in comparison with SH-SY5Y cells, HDF [3]: 102
N=C(N)c1ccc(OCCCCCCOc2ccc(C(=N)N)cc2I)cc1 [Cpd 304]	88	64	73	68	0.70	610	7270	3850	–	SI: selectivity index in comparison with SH-SY5Y cells, Panc-1 [2]: 2.6; IC50 [3]: 5.73 µM; SI: selectivity index in comparison with SH-SY5Y cells, HDF [3]: 15.48
COc1cccc2c1C(=O)c1c(O)c3c(c(O)c1C2=O)C[C@@](O)(C(=O)CO)C[C@@H]3O[C@H]1C[C@H](N)[C@H](O)[C@H](C)O1 [Doxorubicin, reference compound]	–	–	–	–	–	–	–	–	–	IC50 ([1]; Homo sapiens, U-87 MG): 1370 nM; inhibition at 10 µM ([1]; Homo sapiens, U-87 MG): 86%; inhibition at 10 µM ([4]; Homo sapiens, read-out: Experimental % inhibition At 10 μM (column 6, head as shown: With verapamil), 72 h, 10 μM): 91%; IC50 ([4]; Homo sapiens, without verapamil): 600 nM; IC50 ([2]; Homo sapiens, PANC-1): 1380 nM; inhibition at 10 µM ([2]; Homo sapiens, PANC-1): 76%
CCCCOCCCNCC(=O)Nc1ccc(S(=O)(=O)c2ccc(NC(=O)CNCCCOCCCC)cc2)cc1 [Hit 287]	–	–	–	–	0.75	210	–	–	87.63	IC50 [4, 5]: 5460 ± 640 nM
COc1cccc2c1C(=O)c1c(O)c3c(c(O)c1C2=O)CC(O)(C(C)=NNC(=O)CO)CC3OC1CC(N)C(O)C(C)O1 (stereo not drawn) [Hit 298]	–	–	–	–	0.36	210 ± 560	930 ± 120	740 ± 90	86.99	IC50 ([4]; without verapamil): 30 nM
N=C(N)c1ccc(OCCCCCCOc2ccc(C(=N)N)cc2I)cc1 [Hit 304]	–	–	–	–	0.68	610 ± 120	7270 ± 670	3850 ± 270	88.87	IC50 [4, 5]: 370 ± 20 nM
